This is an account of results in PubChem BioAssay AID493003 (Sanford-Burnham Center for Chemical Genomics, 2010).

Structures are written as SMILES. The source made the active and inactive calls. The rule behind the calls is not given here.

The assay has as its system S. cerevisiae tim10-1 mutant growth, luminescence. The assay is described as follows: tim10-1 yeast growth inhibition potency – luminescence, S. cerevisiae, uHTS hits, dose response (AID 493003).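 Note: yeast growth measured after about 22 hours at 25 °C.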

On to `CN1CCN(c2ccccc2NC(=O)c2ccc(-c3cccc(Cl)c3)o2)CC1`, for which the IC50 was 21.4 µM.

Turning to `Cn1nc(-c2ccccc2)cc1NC(=O)Nc1ccc(C(C)(C)C)cc1`, the IC50 was 20.3 µM.

With `Cc1ccccc1OCC(=O)Nc1ccc(S(=O)(=O)N2CCCC2)cc1`, the IC50 was 15.6 µM.

Turning to `N/C(=N\OC(=O)CCC1CCCC1)c1ccccc1`, the IC50 is 16.7 µM.

With `Cc1ccc(NC(=S)NCc2ccc3[nH]c4c(c3c2)CCCC4)cc1`, the IC50 was 22.1 µM.

Turning to `N/C(=N\S(=O)(=O)c1cc(C(F)(F)F)cc(C(F)(F)F)c1)c1ccc(Cl)cc1`, the IC50 is 49.7 µM.

As to `CCOC(=O)C1CCN(C2CC(=O)N(c3cccc(Cl)c3)C2=O)CC1` (stereo not drawn), the IC50 was 37.2 µM.

Regarding `CCOC(=O)/C=C/C(=O)OCC(=O)Nc1ccc([N+](=O)[O-])cc1`, the IC50 is 8.19 µM.

With `CCOC(=O)c1sc2ncnc(NCc3ccco3)c2c1C`, the IC50 is 30.5 µM.

`COc1cc(C(=O)O/N=C(\N)Cc2ccc([N+](=O)[O-])cc2)cc(OC)c1OC`: the IC50 is 22.3 µM.

For the compound `N#CC(C#N)=c1ccc2c(c1)NC1(CCCCC1)N=2`, the IC50 is 30.5 µM.

Consider `CCCc1[nH]c2ccc(C#N)cc2c1CCC`, for which the IC50 is 41.3 µM.

Consider `CSc1ccc(-c2nc3cnccn3c2Nc2ccc3c(c2)OCO3)cc1`, for which the IC50 is 59.4 µM.

Take `CCOC(=O)c1ccc(NC(=O)c2cccc3c2C(=O)N(CC2CCCO2)C3)cc1` (stereo not drawn): the IC50 is 55.1 µM.

For the compound `S=C(NCCCc1ccccc1)Nc1ccc(Cl)cc1`, the 50% inhibitory concentration (IC50) was 11.4 µM.

Take `Cc1cccc(/C=C2\Oc3cc(OS(C)(=O)=O)ccc3C2=O)c1`: the IC50 was 31.9 µM.

For `O=C1C=C(NC(=O)Nc2ccc(Cl)c(Cl)c2)CCC1`, the IC50 was 95.6 µM.

`CC1=NN(c2nc(-c3ccc(Cl)cc3)cs2)C(=O)C1`: the IC50 is 33.5 µM.

Turning to `Cc1nc2scc(C)n2c(=O)c1S(=O)(=O)N1CCN(c2cccc(C(F)(F)F)c2)CC1`, the IC50 is 47.3 µM.

As for `Cc1cc(C)n2nc(SCc3c(F)cccc3Cl)nc2n1`, the IC50 is > 100 µM (inactive).

For the compound `COC(=O)c1ccccc1NC(=S)NC(=O)C1CCCCC1`, the IC50 was 42.5 µM.

With `CCOC(=O)c1ccc(N2C(=O)CC(N3CCC(C(=O)OCC)CC3)C2=O)cc1` (stereo not drawn), the IC50 was 15.1 µM.

As for `O=C(c1ccc2c3n(nc2c1)-c1ccccc1CO3)N1CCCCC1`, the IC50 was 13.4 µM.

As for `COc1ccc(C/C(=N\OC(C)=O)c2ccc(OC)cc2)cc1`, the IC50 was 25.7 µM.

Regarding `O=C1CC(Sc2cccs2)C(=O)N1c1ccccc1` (stereo not drawn), the IC50 is 30.7 µM.

Regarding `CC(C)C(=O)N1CCN(c2ccccc2NC(=O)c2ccc([N+](=O)[O-])o2)CC1`, the half-maximal inhibitory concentration (IC50) is 11.5 µM.

Consider `COc1ccc(-c2cc(C3CC3)nc3sc(C#N)c(N)c23)cc1`, for which the 50% inhibitory concentration (IC50) is 12.7 µM.

For `S=c1[nH]nc(-c2ccco2)n1/N=C/C=C/c1ccccc1`, the IC50 is 42.7 µM.

As to `CN(C)S(=O)(=O)c1cccc(NC(=O)COc2cccc3ccccc23)c1`, the IC50 is > 100 µM (inactive).

Consider `C=CCc1ccc(O)c(-c2cc(CC=C)ccc2O)c1`, for which the IC50 is 68.3 µM.

With `O=C(Nc1ccc(N2CCN(C(=O)c3ccccc3)CC2)c(Cl)c1)c1ccc(Br)o1`, the IC50 is 41.8 µM.

`COc1cccc(N2[C@@H](CC(C)=O)c3ccc(/C=C/C(C)=O)cc3S2(=O)=O)c1`: the IC50 is 18.3 µM.

As to `CCCN1C(=O)/C(=N\OCC(=O)Nc2ccc(C(C)C)cc2)c2ccccc21`, the concentration for half-maximal inhibition (IC50) was 60.9 µM.

Turning to `C(=N\N1CCOCC1)/c1cn(-c2ccccc2)nc1-c1ccccc1`, the IC50 is 33.7 µM.

Take `Clc1ccc(-c2nc3cnccn3c2Nc2ccc3c(c2)OCO3)cc1`: the half-inhibitory concentration (IC50) was 29.9 µM.

Consider `O=C(C1CCC1)N1CCc2cc(S(=O)(=O)N3CCN(c4ccccn4)CC3)ccc21`, for which the half-inhibitory concentration (IC50) was 24.3 µM.

As to `Cc1ccc(-c2cc(-c3cccc(F)c3)n[nH]2)c(O)c1`, the half-maximal inhibitory concentration (IC50) is 40.4 µM.

Regarding `O=C(Nc1cccnc1)c1cn(-c2ccccc2)nc1-c1cccs1`, the IC50 was 13.2 µM.

`Oc1c(Cl)cc(Cl)cc1/C=C/c1ccc2cccc(O)c2n1`: the IC50 was 42.6 µM.

As to `Oc1ccc(-c2nccc(-c3ccc(F)cc3)n2)cc1`, the IC50 is 50.3 µM.

`C/C(=N\NC(=S)Nc1cccc(C)c1)c1cc2ccccc2o1`: the IC50 was 47.7 µM.

As to `CCCCCCSc1ccc([C@H]2N[C@@](C)(C(=O)OC)[C@H]3C(=O)N(C)C(=O)[C@@H]23)cc1`, the IC50 is 53.2 µM.

For `CCN1C(=O)C2(C(C#N)=C(N)Oc3c2c(C)nn3-c2ccccc2)c2ccccc21` (stereo not drawn), the IC50 is 22.2 µM.

Turning to `O=c1c2[nH]c3ccc(F)cc3c2nc2n1CCS2`, the IC50 is 27.8 µM.

In the case of `O=C1NCCc2c1[nH]c1c(Cl)ccc(Cl)c21`, the IC50 is 47.8 µM.

For `Cc1nc(Nc2ccccc2)sc1-c1ccccc1`, the IC50 was 11.9 µM.

In the case of `COc1ccc(NC2CCN(C3CC(=O)N(c4ccc(F)c(Cl)c4)C3=O)CC2)cc1` (stereo not drawn), the IC50 was 10.4 µM.

Take `CC(C)C(=O)Nc1ccc(-c2nc3ccccc3c(=O)o2)cc1`: the IC50 is 36.5 µM.

On to `COc1ccc(-c2cc(-c3ccc(Cl)cc3)n[nH]2)c(O)c1`, for which the IC50 is 27.1 µM.

In the case of `CCc1c(C)c2c(C)nn(-c3ccccc3)c2oc1=O`, the IC50 is 17.2 µM.

For `CC1=C/C(=N\OS(=O)(=O)c2ccccc2)C=CC1=O`, the IC50 is 0.46 µM.

Turning to `CN(C)CCCN(C(=O)c1ccc(Cl)s1)c1nc2cc3c(cc2s1)OCO3`, the IC50 was 29.4 µM.

`Nc1c(C(=O)Nc2ccccc2)c2nc3ccccc3nc2n1CCCN1CCOCC1`: the IC50 was 8.41 µM.

Take `Cc1cc(N(CCO)CCO)ccc1N=Nc1cc(F)ccc1F`: the IC50 is 26.1 µM.

For `Cc1[nH]c2ccccc2c1C(O)CN1CCN(c2cccc(C(F)(F)F)c2)CC1` (stereo not drawn), the IC50 is 21.3 µM.

Regarding `CCCCNC(=S)N=Nc1c(O)[nH]c2ccccc12`, the half-inhibitory concentration (IC50) is 9.9 µM.

Turning to `CSc1ccccc1NC(=O)C1CC(c2c(F)cccc2Cl)=NO1` (stereo not drawn), the IC50 was 25.9 µM.

For the compound `COc1ccc(-c2[nH]ncc2N=Nc2ccccc2)cc1`, the IC50 is 16.7 µM.

In the case of `COc1cc(N=c2ssnc2Cl)c(OC)cc1Cl`, the IC50 was 13 µM.

Turning to `CCC(Oc1ccccc1)C(=O)Nc1ncc([N+](=O)[O-])s1` (stereo not drawn), the IC50 is 18.3 µM.

For the compound `CN=C(Nc1cc(Cl)ccc1Cl)SC1CC(=O)N(c2ccc(C(=O)OC)cc2)C1=O` (stereo not drawn), the IC50 is 12.6 µM.

Take `COc1cccc(C(=O)CSc2nnnn2C2CCCCC2)c1`: the IC50 was 28.2 µM.

In the case of `COC(=O)c1cc(C)[nH]c2c(C)cc3nc4ccccc4c3c12`, the IC50 is 21 µM.

On to `Cc1cc(Nc2ccccc2Cl)nc(-c2ccccc2O)n1`, for which the IC50 was 33.2 µM.

Turning to `C/C(=N\NC(=O)c1cc(-c2cccs2)nc2ccccc12)c1ccccn1`, the IC50 is 28.7 µM.

Take `CCOC(=O)c1ccc(N2C(=O)CC(N3CCC(Nc4ccc(F)cc4)CC3)C2=O)cc1` (stereo not drawn): the IC50 was 55 µM.

In the case of `O=[N+]([O-])c1ccccc1/C=C/C=N/n1c(-c2ccccc2)n[nH]c1=S`, the IC50 was 73.4 µM.

Consider `CC1CCN(S(=O)(=O)c2ccc(NC(=O)Cc3cccs3)cc2)CC1`, for which the IC50 was 46.5 µM.
